Results as given in patent publication US12624044B2, “SMARCA degraders and uses thereof” (Kymera Therapeutics, Inc., priority 2019, dated 2026).

Target: SMARCA2 (Homo sapiens, UniProt P51531)
Assay: MSD SMARCA2 degradation in A549 cell line
Type: cell-based
Conditions: 24 h; for Dmax: A549, A549 cells; for DC50: A549 cells, read-out: SMARCA2 MSD A549 degradation 24 h: Average external-Abs DC50
Procedure: Cells were seeded into 96-well plates (A549 cells: 2×10^4 cells/well/100 ul media) abd incubated overnight. The next day, 200 nl compound were added into the intermediate plate with Echo (Labcyte 550) from source plate containing a 3-fold serial dilution from top concentration of 1 mM. The culture medium was changed with 80 ul of fresh medium and 80 ul of 2× compound solution was added into the well to make a final concentration of 1000 nM, 333.3 nM, 111.1 nM, 37.04 nM, 12.35 nM, 4.115 nM, 1.372 nM, 0.457 nM, 0.152 nM and 0 nM (DMSO). The wells were mixed and then incubated for 24 hours. The media was aspirated from the cultures and 60 ul pre-chilled PIPA lysis buffer (Boston BioProducts BP-115D) with protease/phosphatase inhibitor (Roche 05892791001/Roche 04906837001) was added into the well to lyze the cells for 20 minutes at 4° C. The MSD plate (L15XA) was coated with 40 ul cell lysate and incubated at 4° C. overnight. The next day, the plate was washed three times with TBST (CST #9997S), 150 ul/well. The MSD plates was blocked with 150 ul blocking buffer per well and shaked for 1 hr at RT, 600 rpm. The blocking buffer was 3% Blocker A (MSD, R93BA-4) in TBST. The MSD plate was washed three times with 150 ul/well of TBST and 25 ul/well of detection antibody (Rabbit anti-SMARCA2/BRM antibody, 100 μg/ml, ab223735) was added at final concentration of 1 ug/ml diluted in 1% Blocking buffer and shaken for 1 hour at RT, 600 rpm. The MSD plate was washed three times with 150 ul/well of TBST and 25 ul/well of SULFO-TAG anti-rabbit antibody (MSD, R32AB-1) was added at final concentration of 1 ug/ml diluted in 1% Blocking buffer and shaken for 1 hour at RT, 600 rpm. The MSD plate was washed three times with 150 ul/well of TBST and 150 ul/well of 2×MSD reading buffer diluted from 4× (MSD, R92TC-2) with water was added. Lastly, the MSD instrument was read.
The letter codes for the percentage of SMARCA2 degradation after 24 hours (Dmax %) include: A (>90% degradation), B (>70-90% degradation), C (50-70% degradation), and D (<50% degradation).

SMARCA2, sequence (P51531 whole entry): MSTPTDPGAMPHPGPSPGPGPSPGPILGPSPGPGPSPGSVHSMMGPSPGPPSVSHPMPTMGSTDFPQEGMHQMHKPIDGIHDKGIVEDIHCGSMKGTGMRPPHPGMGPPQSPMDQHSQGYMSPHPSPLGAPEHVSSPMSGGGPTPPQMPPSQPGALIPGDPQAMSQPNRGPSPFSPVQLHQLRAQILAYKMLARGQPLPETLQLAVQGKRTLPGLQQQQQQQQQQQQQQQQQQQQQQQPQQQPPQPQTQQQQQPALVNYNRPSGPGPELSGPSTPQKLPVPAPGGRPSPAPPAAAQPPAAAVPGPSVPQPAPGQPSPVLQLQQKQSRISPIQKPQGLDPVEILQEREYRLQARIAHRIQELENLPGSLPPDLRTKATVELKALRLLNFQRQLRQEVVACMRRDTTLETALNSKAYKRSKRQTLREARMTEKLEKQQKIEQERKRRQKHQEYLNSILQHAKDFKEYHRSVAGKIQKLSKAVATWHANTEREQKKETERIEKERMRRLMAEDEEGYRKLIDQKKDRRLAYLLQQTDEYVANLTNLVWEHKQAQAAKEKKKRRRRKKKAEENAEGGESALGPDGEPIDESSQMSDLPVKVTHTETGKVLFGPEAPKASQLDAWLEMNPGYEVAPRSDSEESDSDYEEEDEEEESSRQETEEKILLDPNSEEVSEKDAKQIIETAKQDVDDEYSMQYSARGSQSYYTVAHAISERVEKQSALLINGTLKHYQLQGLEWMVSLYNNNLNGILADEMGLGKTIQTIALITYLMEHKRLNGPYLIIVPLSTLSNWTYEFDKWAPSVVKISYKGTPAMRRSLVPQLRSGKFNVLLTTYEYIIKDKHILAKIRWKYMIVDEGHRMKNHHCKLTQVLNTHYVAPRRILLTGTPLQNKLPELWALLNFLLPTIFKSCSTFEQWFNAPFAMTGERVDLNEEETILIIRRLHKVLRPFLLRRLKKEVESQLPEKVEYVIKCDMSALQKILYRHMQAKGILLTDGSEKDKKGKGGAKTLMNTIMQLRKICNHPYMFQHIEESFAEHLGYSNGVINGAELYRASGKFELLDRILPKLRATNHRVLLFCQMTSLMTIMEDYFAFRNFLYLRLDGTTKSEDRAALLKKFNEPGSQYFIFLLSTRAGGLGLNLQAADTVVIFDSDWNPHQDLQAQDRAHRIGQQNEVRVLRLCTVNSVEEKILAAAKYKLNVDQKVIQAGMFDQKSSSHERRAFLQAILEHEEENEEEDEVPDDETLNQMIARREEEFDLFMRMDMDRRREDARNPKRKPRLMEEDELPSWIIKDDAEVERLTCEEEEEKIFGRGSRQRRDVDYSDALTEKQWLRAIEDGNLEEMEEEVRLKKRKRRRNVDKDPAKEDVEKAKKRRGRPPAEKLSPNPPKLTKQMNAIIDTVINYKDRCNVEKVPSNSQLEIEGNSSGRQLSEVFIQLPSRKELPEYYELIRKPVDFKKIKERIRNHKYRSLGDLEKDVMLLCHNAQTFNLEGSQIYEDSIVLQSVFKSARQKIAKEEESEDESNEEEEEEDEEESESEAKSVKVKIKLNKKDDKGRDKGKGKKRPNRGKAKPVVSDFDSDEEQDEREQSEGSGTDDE

Row | Dmax [%] | DC50 [nM] | Structure (SMILES)
1 | > 90 | 100 to 500 | Cc1ncsc1-c1ccc(CNC(=O)[C@@H]2C[C@@H](O)CN2C(=O)[C@@H](NC(=O)[C@H]2CC3(C[C@H](CN4CCC(n5cc(-c6cc(-c7ccccc7O)nnc6N)cn5)CC4)C3)C2)C(C)(C)C)cc1 (stereo partly drawn) [I-432]
2 | < 50 | > 1000 | Cc1ncsc1-c1ccc(CNC(=O)[C@@H]2C[C@@H](O)CN2C(=O)[C@@H](NC(=O)[C@H]2CC[C@@H](N3CCC(N4CCC(n5cc(-c6cc(-c7ccccc7O)nnc6N)cn5)CC4)CC3)CC2)C(C)(C)C)cc1 [I-435]
3 | – | 100 to 500 | Cc1ncsc1-c1ccc(CNC(=O)[C@@H]2C[C@@H](O)CN2C(=O)[C@@H](NC(=O)[C@H]2C[C@]3(C[C@H](CN(C)Cc4cnc(N5C6CCC5CN(c5cc(-c7ccccc7O)nnc5N)C6)nc4)C3)C2)C(C)(C)C)cc1 (stereo partly drawn) [I-443]
4 | < 50 | > 1000 | Cc1ncsc1-c1ccc(CNC(=O)[C@@H]2C[C@@H](O)CN2C(=O)[C@@H](NC(=O)CCN2CCC(n3cc(-c4cc(-c5ccccc5O)nnc4N)cn3)CC2)C(C)(C)C)cc1 [I-458]
5 | < 50 | > 1000 | Cc1ncsc1-c1ccc(CNC(=O)[C@@H]2C[C@@H](O)CN2C(=O)[C@@H](NC(=O)CCN(C)Cc2ccc(N3CCN(c4cc(-c5ccccc5O)nnc4N)CC3)cc2)C(C)(C)C)cc1 [I-463]
6 | < 50 | > 1000 | Cc1ncsc1-c1ccc(CNC(=O)[C@@H]2C[C@@H](O)CN2C(=O)[C@@H](NC(=O)CCCN(C)Cc2ccc(N3CCN(c4cc(-c5ccccc5O)nnc4N)CC3)cc2)C(C)(C)C)cc1 [I-464]
7 | < 50 | > 1000 | Cc1ncsc1-c1ccc(CNC(=O)[C@@H]2C[C@@H](O)CN2C(=O)[C@@H](NC(=O)CCN2CCC(Cn3cc(-c4cc(-c5ccccc5O)nnc4N)cn3)CC2)C(C)(C)C)cc1 [I-466]
8 | < 50 | > 1000 | Cc1ncsc1-c1ccc(CNC(=O)[C@@H]2C[C@@H](O)CN2C(=O)[C@@H](NC(=O)CCN2CCC[C@@H](Cn3cc(-c4cc(-c5ccccc5O)nnc4N)cn3)C2)C(C)(C)C)cc1 [I-470]
9 | < 50 | > 1000 | Cc1ncsc1-c1ccc(CNC(=O)[C@@H]2C[C@@H](O)CN2C(=O)[C@@H](NC(=O)CCCN2CCN(Cc3ccc(-c4cc(-c5ccccc5O)nnc4N)cc3)CC2)C(C)(C)C)cc1 [I-475, (2S,4R)-1-((S)-2-(4-(4-(4-(3-amino-6-(2-hydroxyphenyl)pyridazin-4-yl)benzyl)piperazin-1-yl)butanamido)-3,3-dimethylbutanoyl)-4-hydroxy-N-(4-(4-methylthiazol-5-yl)benzyl)pyrrolidine-2-carboxamide]
10 | < 50 | > 1000 | Cc1ncsc1-c1ccc(CNC(=O)[C@@H]2C[C@@H](O)CN2C(=O)[C@@H](NC(=O)CNCc2cccc(C#Cc3cc(NC(=O)Nc4cc(F)ncc4CO)ccn3)c2)C(C)(C)C)cc1 [I-487, (2S,4R)-1-((S)-2-(2-((3-((4-(3-(2-fluoro-5-(hydroxymethyl)pyridin-4-yl)ureido)pyridin-2-yl)ethynyl)benzyl)amino)acetamido)-3,3-dimethylbutanoyl)-4-hydroxy-N-(4-(4-methylthiazol-5-yl)benzyl)pyrrolidine-2-carboxamide]
11 | < 50 | > 1000 | Cc1ncsc1-c1ccc(CNC(=O)[C@@H]2C[C@@H](O)CN2C(=O)[C@@H](NC(=O)CCCNCc2cccc(C#Cc3cc(NC(=O)Nc4cc(F)ncc4CO)ccn3)c2)C(C)(C)C)cc1 [I-488]
12 | < 50 | > 1000 | Cc1ncsc1-c1ccc(CNC(=O)[C@@H]2C[C@@H](O)CN2C(=O)[C@@H](NC(=O)CCCCCNCc2cccc(C#Cc3cc(NC(=O)Nc4cc(F)ncc4CO)ccn3)c2)C(C)(C)C)cc1 [I-489]
13 | < 50 | > 1000 | Cc1ncsc1-c1ccc(CNC(=O)[C@@H]2C[C@@H](O)CN2C(=O)[C@@H](NC(=O)CCCCCCCNCc2cccc(C#Cc3cc(NC(=O)Nc4cc(F)ncc4CO)ccn3)c2)C(C)(C)C)cc1 [I-490]
14 | < 50 | > 1000 | Cc1ncsc1-c1ccc(CNC(=O)[C@@H]2C[C@@H](O)CN2C(=O)[C@@H](NC(=O)CNCc2ccc(C#Cc3cc(NC(=O)Nc4cc(F)ncc4CO)ccn3)cc2)C(C)(C)C)cc1 [I-491]
15 | < 50 | > 1000 | Cc1ncsc1-c1ccc(CNC(=O)[C@@H]2C[C@@H](O)CN2C(=O)[C@@H](NC(=O)CCCCCNCc2ccc(C#Cc3cc(NC(=O)Nc4cc(F)ncc4CO)ccn3)cc2)C(C)(C)C)cc1 [I-493]
16 | < 50 | > 1000 | Cc1ncsc1-c1ccc(CNC(=O)[C@@H]2C[C@@H](O)CN2C(=O)[C@@H](NC(=O)CCCCCCCNCc2ccc(C#Cc3cc(NC(=O)Nc4cc(F)ncc4CO)ccn3)cc2)C(C)(C)C)cc1 [I-494]
17 | < 50 | > 1000 | Cc1ncsc1-c1ccc(CNC(=O)[C@@H]2C[C@@H](O)CN2C(=O)[C@@H](NC(=O)CN2CCC(c3cccc(C#Cc4cc(NC(=O)Nc5cc(F)ncc5CO)ccn4)c3)CC2)C(C)(C)C)cc1 [I-498]
18 | < 50 | > 1000 | Cc1ncsc1-c1ccc(CNC(=O)[C@@H]2C[C@@H](O)CN2C(=O)[C@@H](NC(=O)CCCN2CCC(c3cccc(C#Cc4cc(NC(=O)Nc5cc(F)ncc5CO)ccn4)c3)CC2)C(C)(C)C)cc1 [I-499, (2S,4R)-1-[(2S)-2-[4-[4-[3-[2-[4-[[2-fluoro-5-(hydroxymethyl)-4-pyridyl]carbamoylamino]-2-pyridyl]ethynyl]phenyl]-1-piperidyl]butanoylamino]-3,3-dimethyl-butanoyl]-4-hydroxy-N-[[4-(4-methylthiazol-5-yl)phenyl]methyl]pyrrolidine-2-carboxamide]

Row | Structure (SMILES) | Dmax [%] | DC50 [nM]
19 | Cc1ncsc1-c1ccc(CNC(=O)[C@@H]2C[C@@H](O)CN2C(=O)[C@@H](NC(=O)[C@H]2CC3(C[C@H](CN(C)Cc4cnc(N5C6CCC5CN(c5cc(-c7ccccc7O)nnc5N)C6)nc4)C3)C2)C(C)(C)C)cc1 (stereo partly drawn) [I-417] | > 90 | 100 to 500
20 | Cc1ncsc1-c1ccc(CNC(=O)[C@@H]2C[C@@H](O)CN2C(=O)[C@@H](NC(=O)C2CC=C(c3nccc(N4C5CCC4CN(c4cc(-c6ccccc6O)nnc4N)C5)n3)CC2)C(C)(C)C)cc1 (stereo partly drawn) [I-418] | > 90 | 100 to 500
21 | Cc1ncsc1-c1ccc(CNC(=O)[C@@H]2C[C@@H](O)CN2C(=O)[C@@H](NC(=O)[C@H]2CC[C@@H](Cc3cnc(N4C5CCC4CN(c4cc(-c6ccccc6O)nnc4N)C5)nc3)CC2)C(C)(C)C)c(C(F)(F)F)c1 [I-421] | 70 to 90 | 100 to 500
22 | Cc1ncsc1-c1ccc(CNC(=O)[C@@H]2C[C@@H](O)CN2C(=O)[C@@H](NC(=O)[C@H]2CC[C@H](Cc3cnc(N4C5CCC4CN(c4cc(-c6ccccc6O)nnc4N)C5)nc3)CC2)C(C)(C)C)c(C(F)(F)F)c1 [I-422] | > 90 | 100 to 500
23 | Cc1ncsc1-c1ccc(CNC(=O)[C@@H]2C[C@@H](O)CN2C(=O)[C@@H](NC(=O)[C@H]2CC3(C[C@H](CN4CCC(c5cnc(N6C7CCC6CN(c6cc(-c8ccccc8O)nnc6N)C7)nc5)CC4)C3)C2)C(C)(C)C)cc1 (stereo partly drawn) [I-426] | > 90 | 100 to 500
24 | Cc1ncsc1-c1ccc(CNC(=O)[C@@H]2C[C@@H](O)CN2C(=O)[C@@H](NC(=O)C23CCC(CN(C)Cc4cnc(N5C6CCC5CN(c5cc(-c7ccccc7O)nnc5N)C6)nc4)(CC2)CC3)C(C)(C)C)cc1 [I-429] | 70 to 90 | 100 to 500
25 | Cc1ncsc1-c1ccc(CNC(=O)[C@@H]2C[C@@H](O)CN2C(=O)[C@@H](NC(=O)[C@H]2CC[C@@H](N3CC(c4cnc(N5C6CCC5CN(c5cc(-c7ccccc7O)nnc5N)C6)nc4)C3)CC2)C(C)(C)C)cc1 [I-436] | > 90 | 100 to 500
26 | Cc1ncsc1-c1ccc(CNC(=O)[C@@H]2C[C@@H](O)CN2C(=O)[C@@H](NC(=O)[C@H]2CC[C@@H](c3cnc(N4C5CCC4CN(c4cc(-c6ccccc6O)nnc4N)C5)nc3C)CC2)C(C)(C)C)cc1 [I-440] | > 90 | 100 to 500
27 | Cc1ncsc1-c1ccc(CNC(=O)[C@@H]2C[C@@H](O)CN2C(=O)[C@@H](NC(=O)[C@H]2CC3CCC2C[C@@H]3c2cnc(N3C4CCC3CN(c3cc(-c5ccccc5O)nnc3N)C4)nc2)C(C)(C)C)cc1 (stereo partly drawn) [I-441] | > 90 | 100 to 500
28 | Cc1ncsc1-c1ccc(CNC(=O)[C@@H]2C[C@@H](O)CN2C(=O)[C@@H](NC(=O)C2CC3CCC2C[C@H]3c2cnc(N3C4CCC3CN(c3cc(-c5ccccc5O)nnc3N)C4)nc2)C(C)(C)C)c(C(F)(F)F)c1 (stereo partly drawn) [I-442] | 50 to 70 | 501 to 1000
29 | Cc1ncsc1-c1ccc(CNC(=O)[C@@H]2C[C@@H](O)CN2C(=O)[C@@H](NC(=O)CCCN(C)CC#Cc2cnc(N3C4CCC3CN(c3cc(-c5ccccc5O)nnc3N)C4)nc2)C(C)(C)C)cc1 [I-497] | < 50 | > 1000
